BindingDB's records for doi:10.1016/0028-3908(88)90149-9 (Organon International, 1988)

Molecular target: Norepinephrine transporter (Rattus norvegicus, UniProt Q9JIA2)

Ki: 15.9 nM
Compound: CN1Cc2c(N)cccc2[C@H](c2ccccc2)C1 [(+/-)-2-Methyl-4-phenyl-1,2,3,4-tetrahydro-isoquinolin-8-ylamine]
